Results taken from patent US20100035865A1, “Sulfonamides and Pharmaceutical Compositions Thereof” (PFIZER INC, priority 2007, published 2010).
“And” between values parts separate entries of the source, which are not always exact repeats. Identical values can stand only once. Like-named read-outs stand apart in the source and are kept apart here.

System: AMPA receptors
Experiment: AMPA ES Cell FLIPR Screen, G7330B (EC50 and % effect)
Assay type: cell-based, murine
Conditions: for EC50: ES cell-derived neurons, 32 uM AMPA challenge
Method: The murine ES cell line used was E14-Sx1-16C, which has a targeted mutation in the Sox1 gene, a neuroectodermal marker, that offers G418 resistance when the Sox1 gene is expressed (Stem Cell Sciences). ES cells were maintained undifferentiated as previously described (Roach). […] ES cells were plated on gelatin-coated dishes (BD Biosciences), the media was changed daily and the cells were dissociated with 0.05% Trypsin EDTA (Invitrogen) every other day.
Embryoid Body Formation: Prior to embryoid body (EB) formation the ES cells were weaned from FBS onto Knockout Serum Replacement (KSR) (Invitrogen). To form EBs, ES cells were dissociated into a single cell suspension then 3×10^6 cells were plated in bacteriology dishes (Nunc 4014) and grown as a suspension culture in NeuroEB-I medium that consisted of Knockout™ D-MEM (Invitrogen), supplemented with 10% KSR (Invitrogen), 0.2 mM L-Glutamine (Invitrogen), 0.1 mM MEM non-essential amino acids (Invitrogen), 30 μg/ml Gentamicin (Invitrogen), 1000 u/ml ESGRO (Chemicon), 0.1 mM 2-Mercaptoethanl (Sigma) and 150 ng/ml Transferrin (Invitrogen). The plates were put on a Stovall Belly Button shaker in an atmospheric oxygen incubator. The media was changed on day 2 of EB formation with NeuroEB-I and on day 4 with NeuroEB-II (NeuroEB-I plus 1 μg/ml mNoggin [R&D Systems]).
Neuronal Precursor Selection and Expansion: On day 5 of EB formation, EBs were dissociated with 0.05% Trypsin EDTA, and 4×10^6 cells/100 mm dish were plated on Laminin coated tissue culture dishes in NeuroII-G418 medium that consisted of a base medium of a 1:1 mixture of D-MEM/F12 supplemented with N2 supplements and NeuroBasal Medium supplemented with B27 supplement and 0.1 mM L-Glutamine (all from Invitrogen). The base medium was then supplemented with 10 ng/ml bFGF (Invitrogen), 1 μg/ml mNoggin, 500 ng/ml SHH-N, 100 ng/ml FGF-8b (R&D Systems), 1 μg/ml Laminin and 200 μg/ml G418 (Invitrogen) for selection of neuronal precursors expressing Sox-1. The plates were put in an incubator that contained 2% Oxygen and were maintained in these conditions. During the 6-day selection period, the NeuroII media was changed daily. On day 6, the surviving neuronal precursor foci were dissociated with 0.05% Trypsin EDTA and the cells were plated at a density of 1.5×10^6 cells/100 mm Laminin coated dish in NeuroII-G418 medium. The cells were dissociated every other day for expansion, and prepared for Cryopreservation at passage 3 or 4. The cryopreservation medium contained 50% KSR, 10% Dimethyl Sulfoxide (DMSO) (Sigma) and 40% NeuroI-G418I medium. Neuronas precursors were crypreserved at a concentration of 4×10^6cells/ml and 1 ml/cryovial in a controlled rate freezer overnight then transferred to an ultra-low freezer or liquid nitrogen for long-term storage,
Neuronal Differentiation: Cryopreserved ES cell-derived neuronal precursors were thawed by the rapid thaw method in a 37-degree water-bath. The cells were transferred from the cryovial to a 100 mm Laminin coated tissue culture dish that already contained NeuroII-G418 that had been equilibrated in a 2% Oxygen incubator. The media was changed with fresh NeuroII-G418 the next day. The cells were dissociated every other day as described above for expansion to generate enough cells to plate for the screen. For the screen, the cells were plated into 384-well poly-d-lysine coated tissue culture dishes (BD Biosciences) by the automated SelecT at a cell density of 6K cells/well in differentiation medium NeuroIII that contained a 4:1 ratio of the NeuroBasalMedium/B27:D-MEM/F12/N2 supplemented with 1 μM cAMP (Sigma), 200 μM Ascorbic Acid (Sigma), 1 μg/ml Laminin (Invitrogen) and 10 ng/ml BDNF (R&D Systems). The plates were put in an incubator with 2% Oxygen and allowed to complete the differentiation process for 7 days. The cells could then be used over a 5-day period for the high throughput screen.
Procedure for AMPA ES Cell FLIPR Screen […]

[1] = Dose 31.6 uM, individual determinations
[2] = individual determinations, read-out: G7330B (U): EC50
[3] = mean of individual determinations (range and n in cells below), read-out: G7330B mean EC50
[4] = Dose 32.0 uM, individual determinations

Compound	G7330B (U): % Effect [1]	EC50 [2]	EC50 [3] [µM]	G7330B (U): % Effect [4]
CC(=O)N1CC[C@@H](NS(=O)(=O)C(C)C)[C@H](c2ccc(NC(=O)c3ccccc3)cc2)C1 (relative stereo) [Example 39, N-{4-[trans-1-Acetyl-4-(propane-2-sulfonylamino)-piperidin-3-yl]-phenyl}-benzamide]	145% and 142%	20.2 µM	20.2	–
CC(C)S(=O)(=O)N[C@@H]1CCN(C)C[C@H]1c1ccc(NC(=O)c2ccccc2)cc1 (relative stereo) [Example 44, N-{4-[trans-1-Methyl-4-(propane-2-sulfonylamino)-piperidin-3-yl]-phenyl}-benzamide]	1.85% and 1.10% and 5.81%	> 31.6 µM	> 31.6	–
CC(=O)N1CCC(NS(=O)(=O)C(C)C)C(c2ccc(-c3ccccc3C#N)cc2)C1 (stereo not drawn) [Example 29, Propane-2-sulfonic acid[trans-1-acetyl-3-(2′-cyano-biphenyl-4-yl)-piperidin-4-yl]-amide]	201% and 204% and 155% (2×) and 159% and 194% and 364% and 391% and 363% and 195% (3×) and 187% and 150% and 151% and 202%	1.73 µM and 1.44 µM and 2.16 µM and 1.96 µM and 1.28 µM and 1.51 µM and 2.74 µM and 2.29 µM and 3.61 µM and 3.13 µM	2.07	–
CC(C)S(=O)(=O)NC1COCCC1c1ccc(-c2ccccc2)cc1 (stereo not drawn) [Example 31, Propane-2-sulfonic acid(cis-4-biphenyl-4-yl-tetrahydro-pyran-3-yl)-amide]	–	> 32 µM	> 32	18.3% and 11.0% and 14.5%
CC(C)S(=O)(=O)N[C@@H]1CCN(C)C[C@H]1c1ccc(NC(=O)c2cc(F)cc(F)c2)cc1 (relative stereo) [Example 45, 3,5-Difluoro-N-{4-[trans-1-methyl-4-(propane-2-sulfonylamino)-piperidin-3-yl]-phenyl}-benzamide]	−0.114% and 0.0432% and −0.344%	> 31.6 µM	> 31.6	–
CC(=O)N1CCC(c2ccc(-c3ccccc3)cc2)C(NS(=O)(=O)C(C)C)C1 (stereo not drawn) [Example 43, Propane-2-sulfonic acid(trans-1-acetyl-4-biphenyl-4-yl-piperidin-3-yl)-amide]	85.0% and 92.2% and 102%	> 31.6 µM	> 31.6	–
CCS(=O)(=O)NC1CCOCC1c1ccc(-c2ccccc2)cc1 (stereo not drawn) [Example 16, Ethanesulfonic acid(trans-3-biphenyl-4-yl-tetrahydro-pyran-4-yl)-amide]	–	10.4 µM and > 31.6 µM and > 10 µM	> 18.2	153% and 141% and 140%
CC(C)S(=O)(=O)N[C@H]1CN(C)CC[C@@H]1c1ccc(-c2ccccc2)cc1 [Example 3, Propane-2-sulfonic acid ((3R,4R)-4-biphenyl-4-yl-1-methyl-piperidin-3-yl)-amide]	–	–	> 4.2	99.8% and 94.3% and 83.1% and 129% and 98.9% and 119%
CC(C)S(=O)(=O)NC1COCCC1(O)c1ccc(-c2ccccc2)cc1 [Example 42, Propane-2-sulfonic acid((3R,4S)-rel-4-biphenyl-4-yl-4-hydroxy-tetrahydro-pyran-3-yl)-amide]	145% and 142% and 152%	11.9 µM	11.9	–
CC(C)S(=O)(=O)NC1COCCC1c1ccc(-c2ccc(F)cc2)cc1 (stereo not drawn) [Example 32, Propane-2-sulfonic acid[trans-4-(4′-fluoro-biphenyl-4-yl)-tetrahydro-pyran-3-yl]-amide]	120% and 127% and 115%	2.57 µM	2.57	–
CCOc1ccccc1-c1ccc(C2CCOCC2NS(=O)(=O)C(C)C)cc1 (stereo not drawn) [Example 33, Propane-2-sulfonic acid[trans-4-(2′-ethoxy-biphenyl-4-yl)-tetrahydro-pyran-3-yl]-amide]	122% and 121%	1.94 µM	1.94	–
CC(C)S(=O)(=O)NC1COCCC1c1ccc(-c2ccccc2)cc1 (stereo not drawn) [Example 30, Propane-2-sulfonic acid(trans-4-biphenyl-4-yl-tetrahydro-pyran-3-yl)-amide]	–	5.39 µM and > 31.6 µM and 6.36 µM	> 10.3	119% and 113% and 126%
CNC(=O)c1ccc(-c2ccc([C@@H]3CCOC[C@H]3NS(=O)(=O)C(C)C)cc2)cc1 (relative stereo) [Example 38, 4′-[trans-3-(Propane-2-sulfonylamino)-tetrahydro-pyran-4-yl]-biphenyl-4-carboxylic acid methylamide]	–	> 10 µM	> 10	–
CCN1CC[C@@H](c2ccc(-c3ccccc3)cc2)[C@H](NS(=O)(=O)C(C)C)C1 (relative stereo) [Example 5, propane-2-sulfonic acid (trans-4-biphenyl-4-yl-1-ethyl-piperidin-3-yl)-amide]	76.3% and 78.8%	> 31.6 µM	> 31.6	–
CC(C)S(=O)(=O)N[C@@H]1COCC[C@H]1c1ccc(-c2ccccc2Cl)cc1 [Example 36, Propane-2-sulfonic acid[trans-4-(2′-chloro-biphenyl-4-yl)-tetrahydro-pyran-3-yl]-amide]	–	7.04 µM	7.04	–
CC(C)S(=O)(=O)NC1CCOCC1c1ccc(-c2ccccc2)cc1 (stereo not drawn) [Example 15, Propane-2-sulfonic acid(trans-3-biphenyl-4-yl-tetrahydro-pyran-4-yl)-amide]	–	2.84 µM and 3.14 µM and 5.42 µM	3.64	108% and 109% and 101%
CC(C)S(=O)(=O)NC1CCNCC1c1ccc(-c2ccc(C#N)cc2)cc1 (stereo not drawn) [Example 19, Propane-2-sulfonic acid[trans-3-(4′-cyano-biphenyl-4-yl)-piperidin-4-yl]-amide]	–	> 32 µM	> 32	6.07% and 7.12% and 6.19%
CC(C)S(=O)(=O)NC1CCNCC1c1ccc(-c2cc(Cl)ccc2Cl)cc1 (stereo not drawn) [Example 23, Propane-2-sulfonic acid[trans-3-(2′,5′-dichloro-biphenyl-4-yl)-piperidin-4-yl)]-amide]	–	> 32 µM	> 32	10.1% and 9.71% and 6.91%
CC(C)S(=O)(=O)NC1COCCC1c1ccc(-c2ccc(C#N)cc2)cc1 (stereo not drawn) [Example 35, Propane-2-sulfonic acid[trans-4-(4′-cyano-biphenyl-4-yl)-tetrahydro-pyran-3-yl]-amide]	146% and 155% and 152%	8.97 µM	8.97	–
CC(C)S(=O)(=O)NC1CCNCC1c1ccc(-c2ccccc2Cl)cc1 (stereo not drawn) [Example 22, Propane-2-sulfonic acid[trans-3-(2′-chloro-biphenyl-4-yl)-piperidin-4-yl]-amide]	–	> 32 µM	> 32	18.9% and 23.3% and 17.1%
CC(C)S(=O)(=O)N[C@@H]1COCC[C@H]1c1ccc(-c2ccccc2C#N)cc1 [Example 34, Propane-2-sulfonic acid[trans-4-(2′-cyano-biphenyl-4-yl)-tetrahydro-pyran-3-yl]-amide]	137%	1.25 µM	1.25	–
CC(=O)N1CC[C@@H](NS(=O)(=O)C(C)C)[C@H](c2ccc(NC(=O)c3cc(F)cc(F)c3)cc2)C1 (relative stereo) [Example 40, N-{4-[trans-1-Acetyl-4-(propane-2-sulfonylamino)-piperidin-3-yl]-phenyl}-3,5-difluoro-benzamide]	152% and 179% and 176%	11.7 µM	11.7	–
